Data reported in US5242945A, “Tetronic and thiotetronic acid derivatives as phospholipase A2 inhibitors” (American Home Products Corporation, priority 1991, dated 1993).

Experiments:
[1] = tested on: LTB4 biosynthesis in purified human neutrophils; assay: LTB4 biosynthesis in human polymorphonuclear neutrophils (in vitro phospholipase A2 assay); format: cell-based; conditions: Neutrophil, human PMN
Protocol: The compounds of the invention are tested in an in vitro phospholipase A2 assay to determine the ability of the compounds to inhibit the biosynthesis of platelet-activating factor and LTB4 in purified human neutrophils.
A leukocyte enriched blood sample obtained from a healthy donor is procured by leukophoresis using a Haemonetics model 30+ blood processor (Biological Specialties, Inc., Lansdale, Penn.). The top "platelet-rich" layer is removed after a low speed spin (35 xg, 15 min, 25° C.) of the sample. The remaining cell suspension is centrifuged (400 xg, 10 min, 25° C.) to sediment the remaining cells. The supernatant is discarded and the cell pellet resuspended in 120 ml HBSS (without Ca^++ /Mg^++). The cell suspension is subjected to ficoll-hypaque sedimentation (Histopaque 1077, 400 xg, 30 min, 25° C.). Contaminating erythrocytes are lysed by hypotonic shock (1 min). The cells are then washed once with 40 ml of HBSS and resuspended with HBSS (without Ca^++ /Mg^++) to a concentration of 2.5×10^7 cells/ml for further use. Greater than 95% purity is obtained, as assessed by microscopic examination.
One ml of human PMN (2.5×10^7 cells/ml) is incubated with vehicle or drugs (10 μl) for 10 minutes at 30° C. After preincubation, an equal volume of HBSS (1 ml) containing 2.4 mM CaCl2, 6 μM calcium ionophore A23187 and 50 μCi [^3 H]-acetate is then incubated at 30° C. for 15 minutes. An aliquot (100 μl) of the reaction mixture is taken out and mixed with 900 μl of 15% ethanol. LTB4 is extracted by using solid phase extraction on reverse phase C18 columns to remove excess [^3 H]-acetate and PAD. The C18 column is prewashed once with 2 ml of ethanol and water. The sample aliquot is acidified with 0.1N HCl to pH 3 before applying to the column. The column is then washed with 2 ml of water followed by 2 ml of 15% ethanol and 2 ml of petroleum ether to remove excess labeled acetate. The sample is eluted with 2 ml of ethyl acetate. The collected samples are dried with nitrogen and resuspended in 0.5 ml RIA buffer. The quantity of LTB4 in the sample is obtained from RIA determination. For PAF determination, the reaction is terminated by addition of 5 ml chloroform:methanol:acetic acid (2:1:0.04, v/v/v). [^3 H]-PAF is obtained by Bligh and Dyer extraction. The chloroform phase is removed and dried under nitrogen. The residue is redissolved in 75 μl of chloroform:methanol (80:20, v/v). [^3 H]-PAF is resolved from other phospholipids by TLC on RPC18 plates with a solvent system of chloroform:methanol:water (2:3:1, v/v/v) and is quantitated using a Berthold automated TLC linear analyzer.
Data presented are the mean +/- s.d. of the values relative to control A23187 stimulated cells for each experiment assayed in triplicate. Percent inhibition when used is calculated as:
% Inhibition=100-[(x.div.Control)×100].
Dose response analysis is performed by non-linear regression analysis for curve fitting and IC50 determination.

human platelet PLA2 = molecular target: T1, human platelet PLA2 (Homo sapiens, UniProt P14555); assay: in vitro isolated phospholipase A2 assay, human platelet PLA2; format: biochemical; conditions: for IC50: Table IV, read-out: IC50 HP (human platelet); for inhibition at 10 µM: + values given without explanation, read-out: % Inhibition HP (human platelet)
T1 construct: platelet acid extract PLA2; from tissue; host or cells: human platelets, semipurified acid extract
T1 sequence (P14555 21-144): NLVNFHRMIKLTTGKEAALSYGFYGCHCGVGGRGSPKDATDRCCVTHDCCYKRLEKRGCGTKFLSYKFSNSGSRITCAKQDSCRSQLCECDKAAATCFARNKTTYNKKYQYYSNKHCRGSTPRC
How it was run: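 PLA2 from semipurified human platelet acid extract or purified human synovial fluid, preincubated 30 min at room temperature with compound. ³H-arachidonate-labelled E. coli substrate then added in Tris-HCl pH 7.5, with enzyme giving about 12% hydrolysis. Reaction ran 10 min at 37° C; released arachidonic acid recovered on NH2 columns and measured by β-counting.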

TPA-induced ear edema = assay: 12-o-tetradecanoylphorbol acetate (TPA)-induced murine ear edema assay; format: in vivo, mouse (Swiss Webster); conditions: TPA; for ED50: Mus musculus, sc, 4 h, read-out: Subcutaneous ED50; for ED50 / Subcutaneous % Inhibition at 50 m/kg: subcutaneous
Protocol: The ability of the compounds of the invention to inhibit inflammatory responses is examined in the in vivo arachidonic acid (AA)/12-o-tetradecanoylphorbol acetate (TPA)-induced murine ear edema assay.
Swiss Webster female mice (Buckshire), approximately 8 weeks old are placed into plastic boxes in groups of six. Eight groups of mice receive AA topically on the right ear, and another 8 groups receive TPA topically on the right ear. AA and TPA are dissolved in acetone at concentrations of 100 mg/ml and 100 μg/ml respectively. The phlogistics are applied to the right ear by the means of an automatic pipet. Volumes of 10 μl are applied to the inner and outer surfaces of the ear. Each mouse receives either 2 mg/ear AA or 2 μg/ear TPA. The left ear (control) receives acetone delivered in the same manner. Topical and subcutaneous dosing regimens are as follows 1) drugs are given 30 minutes prior to AA treatment and 2) drugs are given 30 minutes after treatment with TPA.
Measurements are taken with Oditest calipers, 0-10 mm with 0.01 graduations. The right and left ears are measured after 1 hr AA-induced inflammation and 4 hours after TPA-induced inflammation.
The difference between right and left ear thickness is calculated and the significance is determined by a one way analysis of variance with Dunnett's comparisons to control (P=0.05). Drug effects are expressed as a percent change from control values: [formula]

Compound	IC50 (human platelet PLA2) [µM]	inhibition at 10 µM (human platelet PLA2) [%]	inhibition at 10 µM [1] [%]	inhibition at 25 µM [1] [%]	ED50 (TPA-induced ear edema) [mg/kg]	Subcutaneous % Inhibition at 50 m/kg (TPA-induced ear edema; on line of vehicle EPW) [%]	Subcutaneous % Inhibition at 50 m/kg (TPA-induced ear edema; on line of vehicle acetone) [%]	Topical % Inhibition at 200 μg (TPA-induced ear edema; vehicle EPW) [%]	Topical % Inhibition at 200 μg (TPA-induced ear edema; vehicle acetone) [%]	inhibition at 50 µM [1] [%]	Subcutaneous % Inhibition at 50 m/kg (TPA-induced ear edema; no vehicle on line) [%]	Topical % Inhibition at 200 μg (TPA-induced ear edema; vehicle not given) [%]
CCCCC/C=C\C/C=C\CCCCCCCC(=O)C1=C(O)COC1=O [Example 14, (Z,Z)-4-Hydroxy-3-(1-oxo-9,12-octadecadienyl)-2(5H)-furanone]	1.7	44	30	-5	118	37	21	51	28	–	–	–
CCCCCCCCCCC/C=C\CCCCC(=O)C1=C(O)COC1=O [Example 18, (Z)-4-Hydroxy-3-(1-oxo-6-octadecenyl)-2(5H)-furanone]	–	46	–	83	–	28	37	53	1	–	–	–
CCCCC/C=C\C/C=C\C/C=C\CCCCC(=O)C1=C(O)CSC1=O [Example 50, 4-Hydroxy-3-[(Z,Z,Z)-1-oxo-6,9,12-octadecatrienyl]-2(5H)-thiophenone]	–	14.1	–	100	19	–	–	–	–	–	78	–
O=C(CCCCCCC/C=C\c1ccc(Cl)cc1)C1=C(O)COC1=O [Example 35, 3-[(Z)-10-(4-chlorophenyl)-1-oxo-9-decenyl]-4-hydroxy-2(5H)-furanone]	7.5	68.6	81.6	–	–	–	–	–	39	98.5	–	–
CCCC/C=C\CCCCCCCC(=O)C1=C(O)CSC1=O [Example 48, 4-Hydroxy-3-[(Z)-1-oxo-9-tetra-decenyl]-2(5H)-thiophenone]	–	1.1	–	86	–	–	–	–	–	–	58	–
CCCC/C=C\CCCCCCCC(=O)C1=C(O)COC1=O [Example 25, 4-Hydroxy-3-((Z)-1-oxo-9-tetradecenyl)-2(5H)-furanone]	26.7	58.3	74	–	–	–	64	–	30	97	–	86
CCCCCCCC/C=C\CCCCCCCC(=O)C1=C(O)CSC1=O [Example 47, 4-Hydroxy-3-[(Z)-1-oxo-9-octadecenyl]-2(5H)-thiophenone]	–	13.8	–	–	–	–	77	69	74	47	–	–
CCCCCCCC/C=C\CCCCCCCC(=O)C1=C(O)COC1=O [Example 9, (Z)-4-Hydroxy-3-(1-oxo-9-octadecenyl)-2(5H)-furanone]	–	18.5	–	–	–	28	7	56	42	100	–	–
CCCCCCCCCC(=O)C1=C(O)COC1=O [Example 1, 4-Hydroxy-3-(1-oxodecyl)-2(5H)-furanone]	–	14.9	37	46	–	–	23	–	31	–	–	–

The next lines start with results.

IC50 (human platelet PLA2) [µM]	inhibition at 10 µM (human platelet PLA2) [%]	Compound	inhibition at 10 µM [1] [%]	inhibition at 25 µM [1] [%]	ED50 (TPA-induced ear edema) [mg/kg]	Subcutaneous % Inhibition at 50 m/kg (TPA-induced ear edema; on line of vehicle EPW) [%]	Subcutaneous % Inhibition at 50 m/kg (TPA-induced ear edema; on line of vehicle acetone) [%]	Topical % Inhibition at 200 μg (TPA-induced ear edema; vehicle EPW) [%]	Topical % Inhibition at 200 μg (TPA-induced ear edema; vehicle acetone) [%]	inhibition at 50 µM [1] [%]	Subcutaneous % Inhibition at 50 m/kg (TPA-induced ear edema; no vehicle on line) [%]	Topical % Inhibition at 200 μg (TPA-induced ear edema; vehicle not given) [%]
–	30	CC/C=C\C/C=C\C/C=C\CCCCCCCC(=O)C1=C(O)COC1=O [Example 15, (Z,Z,Z)-4-Hydroxy-3-(1-oxo-9,12,15-octadecatrienyl)-2(5H)-furanone]	–	–	–	–	–	–	34	68	–	–
–	15.2	CCCCCCCCCCC/C=C\CCCCC(=O)C1=C(O)CSC1=O [Example 51, 4-Hydroxy-3-[(Z)-1-oxo-6-octadecenyl]-2(5H)-thiophenone]	–	–	–	–	–	–	–	–	76	55
–	62	CCCCC/C=C\C/C=C\C/C=C\CCCCC(=O)C1=C(O)COC1=O [Example 20, (Z,Z,Z)-4-Hydroxy-3-(1-oxo-6,9,12-octadecatrienyl)-2(5H)-furanone]	–	–	31	–	76	81	80	95	–	–
–	16.4	CCCCC/C=C\C/C=C\CCCCCCCC(=O)C1=C(O)CSC1=O [Example 46, 4-Hydroxy-3[(Z,Z)-1-oxo-9,12-octadecadienyl]-2(5H)-thiophenone]	–	–	46	–	73	82	41	39	–	–
13.1	71	CCCCCC1CC1CC1CC1CCCCCCCC(=O)C1=C(O)COC1=O (centres unmarked) [Example 22, 4-Hydroxy-3-[1-oxo-8-[2-[(2-pentylcyclopropyl)methyl]cyclopropyl]octyl]-2(5H)-furanone]	93	91	–	–	36	–	40	–	–	–
